Measured values from patent US20240287052A1, “NOVEL OXAZOLE DERIVATIVE AND PHARMACEUTICAL COMPOSITION FOR PREVENTING OR TREATING ALLERGIC DISEASES COMPRISING THE SAME” (AZCURIS CO., LTD., priority 2021, published 2024).
Where two headings read alike, the source gives them in different places.

Target: T1, IL33 and ST2 binding (Homo sapiens, UniProt O95760)
T1 sequence (O95760 112-270 limits assumed): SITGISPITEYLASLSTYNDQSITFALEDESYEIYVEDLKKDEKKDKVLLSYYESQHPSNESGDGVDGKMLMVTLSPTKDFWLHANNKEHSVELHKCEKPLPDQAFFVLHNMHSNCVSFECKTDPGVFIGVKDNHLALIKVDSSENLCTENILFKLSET
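Also: plate ELISA with coated Flag-tagged human IL-33 and His-tagged human ST2, bound ST2 detected by anti-His HRP and TMB absorbance at 450 nm, 2 h compound incubation.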

Row | inhibition (30 µM) [%] | inhibition (100 µM) [%] | Compound
1 | 36 | 48 | O=C(c1nc(-c2ccc(C(F)(F)F)cc2)oc1-c1ccccc1[N+](=O)[O-])N1CCN(CCN2CCOCC2)CC1 [Compound 152, (4-(2-Morpholinoethyl)piperazin-1-yl)(5-(2-nitrophenyl)-2-(4-(trifluoromethyl)phenyl)oxazol-4-yl)methanone]
2 | -11 | -3 | O=C(NCc1ccncc1)c1nc(-c2ccc(C(F)(F)F)cc2)oc1-c1ccccc1[N+](=O)[O-] [Compound 141, 5-(2-Nitrophenyl)-N-(pyridin-4-ylmethyl)-2-(4-(trifluoromethyl)phenyl)oxazole-4-carboxamide]
3 | 28 | 19 | CN1CCN(CCNC(=O)c2nc(-c3ccc(C#N)cc3)oc2-c2ccccc2[N+](=O)[O-])CC1 [Compound 252, 2-(4-Cyanophenyl)-N-(2-(4-methylpiperazin-1-yl)ethyl)-5-(2-nitrophenyl)oxazole-4-carboxamide]
4 | 5 | 14 | CN(C)CCNC(=O)c1nc(-c2ccc(C(C)(C)C)cc2)oc1-c1ccccc1 [Compound 265, 2-(4-(tert-Butyl)phenyl)-N-(2-(dimethylamino)ethyl)-5-phenyloxazole-4-carboxamide]
5 | -9 | 3 | CN1CCN(CCNC(=O)c2nc(-c3ccc(F)c(F)c3)oc2-c2ccccc2)CC1 [Compound 232, 2-(3,4-Difluorophenyl)-N-(2-(4-methylpiperazin-1-yl)ethyl)-5-phenyloxazole-4-carboxamide]
6 | 0 | 38 | CN(C)CCNC(=O)c1nc(-c2ccc(Cl)cc2)oc1-c1ccccc1 [Compound 244, 2-(4-Chlorophenyl)-N-(2-(dimethylamino)ethyl)-5-phenyloxazole-4-carboxamide]
7 | 35 | 49 | CN1CCN(CCNC(=O)c2nc(-c3ccc4ccccc4c3)oc2-c2ccccc2)CC1 [Compound 258, N-(2-(4-Methylpiperazin-1-yl)ethyl)-2-(naphthalen-2-yl)-5-phenyloxazole-4-carboxamide]
8 | 27 | 36 | O=C(NCCc1ccc(O)cc1)c1nc(-c2ccc(C(F)(F)F)cc2)oc1-c1ccccc1[N+](=O)[O-] [Compound 176, N-(4-Hydroxyphenethyl)-5-(2-nitrophenyl)-2-(4-(trifluoromethyl)phenyl)oxazole-4-carboxamide]
9 | 14 | 9 | CN1CCN(CCNC(=O)c2nc(-c3ccc(C#N)cc3)oc2-c2ccccc2)CC1 [Compound 250, 2-(4-Cyanophenyl)-N-(2-(4-methylpiperazin-1-yl)ethyl)-5-phenyloxazole-4-carboxamide]
10 | -24 | -9 | CC(C)N(CCN1CCN(C(=O)c2nc(-c3ccc(C(F)(F)F)cc3)oc2-c2ccccc2[N+](=O)[O-])CC1)C(C)C [Compound 167, (4-(2-(Diisopropylamino)ethyl)piperazin-1-yl)(5-(2-nitrophenyl)-2-(4-(trifluoromethyl)phenyl)oxazol-4-yl)methanone]
11 | 22 | 15 | O=C(NCCCN1CCOCC1)c1nc(-c2ccc(C(F)(F)F)cc2)oc1-c1ccccc1[N+](=O)[O-] [Compound 157, N-(3-Morpholinopropyl)-5-(2-nitrophenyl)-2-(4-(trifluoromethyl)phenyl)oxazole-4-carboxamide]
12 | -22 | 39 | CN(C)CCNC(=O)c1nc(-c2cccc(C(F)(F)F)c2)oc1-c1ccccc1[N+](=O)[O-] [Compound 123, N-(2-(Dimethylamino)ethyl)-5-(2-nitrophenyl)-2-(3-(trifluoromethyl)phenyl)oxazole-4-carboxamide]
13 | 23 | 49 | CN1CCN(CCNC(=O)c2nc(-c3ccc(OC(F)(F)F)cc3)oc2-c2ccccc2[N+](=O)[O-])CC1 [Compound 206, N-(2-(4-methylpiperazin-1-yl)ethyl)-5-(2-nitrophenyl)-2-(4-(trifluoromethoxy)phenyl)oxazole-4-carboxamide]
14 | 15 | 0 | CN1CCN(CCNC(=O)c2nc(-c3ccc(F)cc3)oc2-c2ccc([N+](=O)[O-])cc2)CC1 [Compound 230, 2-(4-Fluorophenyl)-N-(2-(4-methylpiperazin-1-yl)ethyl)-5-(4-nitrophenyl)oxazole-4-carboxamide]
15 | 13 | 19 | CN1CCN(CCNC(=O)c2nc(-c3ccc(F)c(F)c3)oc2-c2ccccc2[N+](=O)[O-])CC1 [Compound 234, 2-(3,4-Difluorophenyl)-N-(2-(4-methylpiperazin-1-yl)ethyl)-5-(2-nitrophenyl)oxazole-4-carboxamide]
16 | 7 | 32 | CN1CCN(CCNC(=O)c2nc(-c3cccc(OC(F)(F)F)c3)oc2-c2ccccc2[N+](=O)[O-])CC1 [Compound 202, N-(2-(4-Methylpiperazin-1-yl)ethyl)-5-(2-nitrophenyl)-2-(3-(trifluoromethoxy)phenyl)oxazole-4-carboxamide]

Further lines, the molecule ahead of its results:

Row | Compound | inhibition (30 µM) [%] | inhibition (100 µM) [%]
17 | CCOC(=O)c1nc(-c2ccc(C#N)cc2)oc1-c1ccccc1[N+](=O)[O-] [Compound 80, Ethyl 2-(4-cyanophenyl)-5-(2-nitrophenyl)oxazole-4-carboxylate] | 37 | 89
18 | O=C(Nc1ccc(OCc2ccccc2)cc1)c1nc(-c2ccc(C(F)(F)F)cc2)oc1-c1ccccc1[N+](=O)[O-] [Compound 165, N-(4-(Benzyloxy)phenyl)-5-(2-nitrophenyl)-2-(4-(trifluoromethyl)phenyl)oxazole-4-carboxamide] | 10 | 13
19 | CN(C)CCNC(=O)c1nc(-c2cccc(OC(F)(F)F)c2)oc1-c1ccccc1 [Compound 199, N-(2-(Dimethylamino)ethyl)-5-phenyl-2-(3-(trifluoromethoxy)phenyl)oxazole-4-carboxamide] | 7 | 2
20 | CN1CCN(CCNC(=O)c2nc(-c3ccc(F)cc3)oc2-c2ccccc2[N+](=O)[O-])CC1 [Compound 227, 2-(4-Fluorophenyl)-N-(2-(4-methylpiperazin-1-yl)ethyl)-5-(2-nitrophenyl)oxazole-4-carboxamide] | -22 | -28
21 | CN1CCN(CCNC(=O)c2nc(-c3ccccc3C(F)(F)F)oc2-c2ccccc2)CC1 [Compound 118, N-(2-(4-Methylpiperazin-1-yl)ethyl)-5-phenyl-2-(2-(trifluoromethyl)phenyl)oxazole-4-carboxamide] | 24 | 36
22 | CN1CCN(CCNC(=O)c2nc(-c3ccc(C(C)(C)C)cc3)oc2-c2ccccc2[N+](=O)[O-])CC1 [Compound 269, 2-(4-(tert-Butyl)phenyl)-N-(2-(4-methylpiperazin-1-yl)ethyl)-5-(2-nitrophenyl)oxazole-4-carboxamide] | 33 | 44
23 | CCOC(=O)c1nc(-c2ccc(C(C)(C)C)cc2)oc1-c1ccc(NC(C)=O)cc1 [Compound 111, Ethyl 5-(4-acetamidophenyl)-2-(4-(tert-butyl)phenyl)oxazole-4-carboxylate] | 10 | 12
24 | COc1cccc(-c2nc(C(=O)NCCN3CCN(C)CC3)c(-c3ccccc3[N+](=O)[O-])o2)c1 [Compound 211, 2-(3-methoxyphenyl)-N-(2-(4-methylpiperazin-1-yl)ethyl)-5-(2-nitrophenyl)oxazole-4-carboxamide] | 13 | 20
25 | CN(C)CCNC(=O)c1nc(-c2cc(F)cc(F)c2)oc1-c1ccccc1[N+](=O)[O-] [Compound 237, 2-(3,5-Difluorophenyl)-N-(2-(dimethylamino)ethyl)-5-(2-nitrophenyl)oxazole-4-carboxamide] | -34 | -16
26 | CN1CCN(CCNC(=O)c2nc(-c3cccc(F)c3)oc2-c2ccccc2[N+](=O)[O-])CC1 [Compound 223, 2-(3-Fluorophenyl)-N-(2-(4-methylpiperazin-1-yl)ethyl)-5-(2-nitrophenyl)oxazole-4-carboxamide] | 29 | 38
27 | CN(C)CCNC(=O)c1nc(-c2ccc(OC(F)(F)F)cc2)oc1-c1ccccc1[N+](=O)[O-] [Compound 205, N-(2-(Dimethylamino)ethyl)-5-(2-nitrophenyl)-2-(4-(trifluoromethoxy)phenyl)oxazole-4-carboxamide] | -11 | 4
28 | CN(C)CCNC(=O)c1nc(-c2ccc3ccccc3c2)oc1-c1ccccc1[N+](=O)[O-] [Compound 259, N-(2-(Dimethylamino)ethyl)-2-(naphthalen-2-yl)-5-(2-nitrophenyl)oxazole-4-carboxamide] | 6 | 1
29 | CN(C)CCNC(=O)c1coc(-c2ccc(C(F)(F)F)cc2)n1 [Compound 114, N-(2-(dimethylamino)ethyl)-2-(4-(trifluoromethyl)phenyl)oxazole-4-carboxamide] | 10 | 9
30 | CCOC(=O)c1nc(-c2ccc(F)c(F)c2)oc1-c1ccccc1[N+](=O)[O-] [Compound 71, Ethyl 2-(3,4-difluorophenyl)-5-(2-nitrophenyl)oxazole-4-carboxylate] | 29 | 49
31 | CCOC(=O)c1nc(-c2ccc(C(F)(F)F)cc2)oc1-c1cccc(SC)c1 [Compound 40, Ethyl 5-(3-(methylthio)phenyl)-2-(4-(trifluoromethyl)phenyl)oxazole-4-carboxylate] | 108 | 115
32 | CN(C)CCNC(=O)c1nc(-c2ccc(F)cc2)oc1-c1ccccc1 [Compound 224, N-(2-(Dimethylamino)ethyl)-2-(4-fluorophenyl)-5-phenyloxazole-4-carboxamide] | -13 | -18
33 | CN1CCN(CCNC(=O)c2nc(-c3cccc(Cl)c3)oc2-c2ccccc2[N+](=O)[O-])CC1 [Compound 243, 2-(3-chlorophenyl)-N-(2-(4-methylpiperazin-1-yl)ethyl)-5-(2-nitrophenyl)oxazole-4-carboxamide] | 14 | -6
